In paper PMC9789040, “Inhibition of triple negative breast cancer-associated inflammation and progression by N- acylethanolamine acid amide hydrolase (NAAA)” (Scientific Reports, 2022):

Target: T1, N-acylethanolamine acid amidase (NAAA) (Homo sapiens, UniProt Q02083)
T1 construct: purified human NAAA
T1 sequence (Q02083 29-125): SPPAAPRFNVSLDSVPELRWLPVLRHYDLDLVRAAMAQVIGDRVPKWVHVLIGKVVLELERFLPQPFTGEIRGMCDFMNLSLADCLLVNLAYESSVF
T1 sequence (Q02083 126-359): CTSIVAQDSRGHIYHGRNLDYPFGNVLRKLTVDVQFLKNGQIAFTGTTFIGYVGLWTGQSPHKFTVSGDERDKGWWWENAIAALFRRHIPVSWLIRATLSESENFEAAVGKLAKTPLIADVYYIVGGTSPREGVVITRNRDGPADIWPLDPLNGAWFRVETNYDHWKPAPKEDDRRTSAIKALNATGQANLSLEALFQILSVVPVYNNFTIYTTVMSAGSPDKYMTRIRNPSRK
Assay: fluorogenic PAMCA hydrolysis assay with purified human NAAA, […] min preincubation, 8-point curve
Assay type: biochemical

IC50: 20 nM
SMILES: COc1ccc(-c2ccc(COC3CC(N=C=S)C3)nc2)cc1F (stereo not shown) [AM11095]
